# From publication PMC6753678, “Fueling Open Innovation for Malaria Transmission-Blocking Drugs: Hundreds of Molecules Targeting Early Parasite Mosquito Stages” (Frontiers in Microbiology, 2019)
# Read-outs that look alike come from different tables or passages of the source.
# Assays:
# HepG2 cells [1] = assay: HepG2 cytotoxicity assay; details: HepG2 cytotoxicity unified across the three screens
# Outline: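 Cells at 2,500 per well in MEM with 10% fetal bovine serum and 1% NEAA were exposed to test compounds for 48 h at 37°C, 5% CO2. Viability was read by fluorescence, with percent inhibition calculated against 50 μM doxorubicin (positive) and DMSO (negative) controls.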
# [2] = tested on: P. falciparum late stage (stages IV-V) gametocytes; design: method as in Almela et al 2016; details: TCAMS screen comparison; ref Almela et al 2016; read-out: Pf GCT ATP IC50; cited from earlier work
# [3] = tested on: P. falciparum female gametocytes; design: method as in Miguel-Blanco et al 2017; details: TCAMS screen comparison; ref Miguel-Blanco et al 2017; read-out: Pf FGAA IC50; cited from earlier work
# HepG2 cells [4] = details: cited from earlier work
# [5] = tested on: P. falciparum female gametocytes; assay: P. falciparum female gametogenesis assay (Pf FGAA); details: 1: YES; 0: NO
# [6] = tested on: P. falciparum late stage (stages IV-V) gametocytes; assay: P. falciparum late stage gametocyte ATP depletion assay (Pf GC-ATP); details: 1: YES; 0: NO
# [7] = value reported with the Pf FGAA screen, ref Miguel-Blanco et al 2017
# [8] = value reported with the Pf GCT ATP screen, ref Almela et al 2016
SMILES,Unified cytotox (HepG2 cells [1]) [µM],IC50 [2] [nM],IC50 [3] [nM],HepG2 cytoxicity (HepG2 cells [4]; [7]) [µM],HepG2 cytoxicity (HepG2 cells [4]; [8]) [µM],Is compound selective in assay? Pf FGAA active? [5],Is compound selective in assay? Pf GC-ATP active? [6]
CC(C)(C)c1ccc(CN2CCC(CNC(=O)c3cc(-c4ccccc4Cl)cs3)C2)cc1.O=C(O)C(F)(F)F (centres unmarked) [TCMDC-134445],7.23,690,1010,6.17,8.3,0 (0: NO),1 (1: YES)
CC(C)(C)c1ccc(CN2CCC(CNC(=O)c3cc(-c4cccc(Cl)c4)cs3)C2)cc1.O=C(O)C(F)(F)F (centres unmarked) [TCMDC-134446],9.36,610,990,7.42,11.3,0 (0: NO),1 (1: YES)
COc1cccc(-c2csc(C(=O)NCC3CCN(Cc4ccc(C(C)(C)C)cc4)C3)c2)c1.O=C(O)C(F)(F)F (centres unmarked) [TCMDC-134447],7.64,230,650,5.78,9.5,1 (1: YES),1 (1: YES)
COc1cccc(OC)c1CN1CCC(N(C)CCCCCCCCN2CCC(OC(=O)Nc3ccccc3-c3ccccc3)CC2)CC1 [TCMDC-134684],2.66,1040,2260,1.93,3.4,0 (0: NO),0 (0: NO)
COc1cccc(OC)c1CN1CCC(N(C)CCCCCCCCCN2CCC(OC(=O)Nc3ccccc3-c3ccccc3)CC2)CC1 [TCMDC-134690],1.91,260,1310,1.91,<1.56,0 (0: NO),0 (0: NO)
Fc1ccc(OC2CN(c3nccc(NCc4ccccc4Cl)n3)C2)cc1 [TCMDC-135110],83.45,2510,5220,83.45,>25,1 (1: YES),1 (1: YES)
CCn1c(Sc2ccc([N+](=O)[O-])c(C#N)c2)nnc1-c1cccc(Cl)c1 [TCMDC-135234],18.80,3040,1340,18.80,>25,1 (1: YES),0 (0: NO)
CCn1c(-c2nonc2N)nc2c(-c3cc4ccccc4s3)ncc(C(=O)N3CCC(N)C3)c21.O=C(O)C(F)(F)F (centres unmarked) [TCMDC-135281],2.25,350,450,1.00,3.5,0 (0: NO),0 (0: NO)
CNCCNc1nccc(N2CCc3ncnc(Nc4ccc(OCc5cccc(F)c5)c(Cl)c4)c3C2)n1 [TCMDC-135478],6.39,670,1670,5.62,7.16,0 (0: NO),0 (0: NO)
COc1ccc(-c2cnc3[nH]cc(-c4ccncc4)c3c2)cc1OC [TCMDC-135853],7.44,900,2260,11.79,3.1,0 (0: NO),0 (0: NO)
CCn1c(-c2nonc2N)nc2c(-c3cccc(NC(=O)Nc4cccc(Cl)c4)c3)ncc(OCCCN)c21.O=C(O)C(F)(F)F [TCMDC-136193],47.43,2170,1180,80.36,14.5,1 (1: YES),1 (1: YES)
Cl.c1ccc2c(C3CCN(CCCCOc4ccc5c(c4)CCN(CC4CC4)CC5)CC3)c[nH]c2c1 [TCMDC-136244],5.98,710,1150,5.15,6.81,0 (0: NO),0 (0: NO)
COc1ccc(Nc2nccc(-c3ccc4ccnc(NCCCCN)c4c3)n2)cc1 [TCMDC-136642],14.29,330,1510,14.29,>25,0 (0: NO),1 (1: YES)
Cc1cc(OCCN2CCCCC2)ccc1NC(=O)c1cccc2c(=O)n(Cc3ccc(Cl)cc3)cnc12 [TCMDC-136727],4.45,950,1400,4.17,4.73,0 (0: NO),0 (0: NO)
CC(C)NCc1ccc(OCc2cccc(COc3ccc(CNC(C)C)cc3I)c2)c(I)c1.Cl [TCMDC-137259],3.27,210,1320,1.64,4.9,0 (0: NO),1 (1: YES)
CCCCOc1ccc(CNCCCCCCNCc2ccc(OCCCC)c3ccccc23)c2ccccc12.CS(=O)(=O)O [TCMDC-137281],2.67,2800,400,2.29,3.04,0 (0: NO),0 (0: NO)
CS(=O)(=O)O.FC(F)(F)COc1ccc(CCNCCCCNCCc2ccc(OCC(F)(F)F)c3ccccc23)c2ccccc12 [TCMDC-137282],2.33,26.7,200,1.66,3,1 (1: YES),1 (1: YES)
CS(=O)(=O)O.FC(F)(F)COc1ccc2ccccc2c1CCNCCCCNCCc1c(OCC(F)(F)F)ccc2ccccc12 [TCMDC-137317],2.70,1370,1010,2.09,3.3,0 (0: NO),0 (0: NO)
COc1cc2c(cc1CCNCCCCNCCc1cc3c(cc1OC)CCCC3)CCCC2.CS(=O)(=O)O [TCMDC-137319],1.86,80,890,1.86,<1.56,0 (0: NO),1 (1: YES)
COc1ccc2c(c1CCNCCCCNCCc1c(OC)ccc3c1CCCC3)CCCC2.CS(=O)(=O)O [TCMDC-137324],1.21,150,640,1.68,0.75,0 (0: NO),0 (0: NO)
